Experimental data from patent publication US5276049A, “Cyclic urea derivatives, pharmaceutical compositions containing these compounds and methods of using the same” (Dr. Karl Thomae GmbH, priority 1991, dated 1994).
Where a name gives a salt, the structure may show the parent alone.

Legend:
[1] = test system: thrombocyte aggregation in platelet-rich plasma; experiment: Antithrombotic effect: collagen-induced thrombocyte aggregation in platelet-rich plasma (Born and Cross); format: cell-based; details: human platelet-rich plasma, 10 minutes preincubation at 37° C., read-out: Inhibition of platelet aggregation EC50
Description: 2. Antithrombotic Effect Method: The thrombocyte aggregation was measured in platelet-rich plasma from healthy test subjects using the Born and Cross method (J. Physiol. 170: 397 (1964)). In order to inhibit coaggulation the blood was mixed with 3.14% sodium citrate in a ratio by volume of 1:10. Collagen-induced aggregation: The decrease in the optical density of the platelet suspension was measured photometrically and recorded after the addition of the aggregation-initiating substance. The speed of aggregation was concluded from the angle of inclination of the density curve. The point on the curve at which there was maximum transmittance was used to calculate the optical density. The quantity of collagen used was as little as possible but sufficient to give an irreversible reaction curve. Standard commercial collagen produced by Hormonchemie of Munich was used. Before the addition of collagen the plasma was incubated with the substance for 10 minutes at 37° C. From the measurements obtained, an EC50 was determined graphically, relating to a 50% change in the optical density in terms of inhibiting aggregation.

Human Thrombocytes = experiment: Fibrinogen Binding to Human Thrombocytes (I125-fibrinogen, gel-filtered platelets); details: inhibition of I125-fibrinogen binding to gel-filtered human platelets, ADP, 20 minutes, ambient temperature; read-out: Fibrinogen Binding test IC50
Description: 1. Fibrinogen Binding to Human Thrombocytes Blood obtained by puncture of an antecubital vein was anticoagulated with trisodium citrate (final concentration: 13 mM) and centrifuged for 10 minutes at 170 *g. The supernatant platelet-rich plasma was placed on a Sepharose 2B column (Pharmacia) and eluted with a solution of 90 mM common salt, 14 mM trisodium citrate, 5 mM glucose and 50 mM tris(hydroxymethyl)aminomethane, adjusted to pH 7.4. The gel-filtered platelets (GFP) appearing in front of the plasma proteins were used for the binding tests. 50 μl of a 60 mM calcium chloride solution, 50 μl of a 0.6 mM adenosine diphosphate solution, 100 μl of substance solution or solvent and 50 μl of fibrinogen solution (containing 3 μg I125-fibrinogen) were added to 750 μl of GFP and incubated for 20 minutes at ambient temperature. The non-specific binding was measured in the presence of 3 mg/ml of cold fibrinogen. 900 μl of the incubate were carefully pipetted onto 250 μl of silicon oil (AP 38: AR 20, 1:2 v/v, Wacker Chemie) in Eppendorf vessels and centrifuged for 2 minutes at 10,000 *g. The aqueous supernatant and some of the oil were removed, the tip of the vessel with the platelet pellet was cut off and the quantity of bound fibrinogen was measured in a gamma-counter. The concentration of substance which inhibited fibrinogen binding by 50% was calculated from a series of concentrations and given as the IC50.

Structure (SMILES)	EC50 [1] [nM]	IC50 (Human Thrombocytes) [nM]
N=C(N)c1ccc(-n2ccn(-c3ccc(CCC(=O)O)cc3)c2=O)cc1 [1(67), 1-(4-amidino-phenyl)-3-[4-(2-carboxy-ethyl)-phenyl]-3H-imidazol-2-one]	60	30
N=C(N)c1ccc(N2CCN(CCCCC(=O)O)C2=O)cc1 [1(77), -(4-amidino-phenyl)-3-(4-carboxy-butyl)-imidazolidin-2-one]	8000	4900
N=C(N)c1ccc(N2CCN(CCNCC(=O)O)C2=O)cc1 [1(82), 1-(4-amidino-phenyl)-3-(2-carboxymethylaminoethyl)-imidazolidin-2-one]	29000	17000
N=C(N)c1ccc(-c2cn(-c3ccc(CCC(=O)O)cc3)c(=O)n2-c2ccccc2)cc1 [1(94), 4-(4-amidino-phenyl)-1-[4-(2-carboxy-ethyl)-phenyl]-3-phenyl-3H-imidazol-2-one hydrochloride]	400	310
N=C(N)c1ccc(-c2ccc(-c3cn(CCC(=O)O)c(=O)[nH]3)cc2)cc1 [1(117), 4-(4'-amidino-4-biphenylyl)-1-(2-carboxy-ethyl)-3H-imidazol-2-one hydrochloride]	5400	230
Cn1c(-c2ccc(-c3ccc(C(=N)N)cc3)cc2)cn(CCC(=O)O)c1=O [1(118), 4-(4'-amidino-4-biphenylyl)-1-(2-carboxy-ethyl)-3-methyl-3H-imidazol-2-onehydrochloride]	460	170
N=C(N)c1ccc(-c2ccc(-c3cn(CCC(=O)O)c(=O)n3-c3ccccc3)cc2)cc1 [1(119), 4-(4'-amidino-4-biphenylyl)-1-(2-Carboxy-ethyl)-3-phenyl-3H-imidazol-2-onehydrochloride]	730	210
CCc1nn(-c2ccc(C(=N)N)cc2)c(=O)n1-c1ccc(CCC(=O)O)cc1 [1(140), 2-(4-amidino-phenyl)-4-[4-(2-carboxy-ethyl)-phenyl]-5-ethyl-4H-1,2,4-triazol-3-one]	30	21
NCc1ccc(N2CCN(c3ccc(OCC(=O)O)cc3)C2=O)cc1 [1(141), 1-(4-aminomethyl-phenyl)-3-(4-carboxymethyloxyphenyl)-imidazolidin-2-one]	630	310
N=C(N)c1ccc(-c2ccc(-n3c(=O)n(CCC(=O)O)c4cccnc43)cc2)cc1 [1(143), 3-(4'-amidino-4-biphenylyl)-1-(2-carboxy-ethyl)-3H-imidazo[4,5-b]pyridin-2-one]	22000	> 10000
N=C(N)c1ccc(-n2ncn(-c3ccc(CCC(=O)O)cc3)c2=O)cc1 [1(145), 2-(4-amidino-phenyl)-4-[4-(2-carboxy-ethyl)-phenyl]-4H-1,2,4-triazol-3-one]	50	7.7
N=C(N)c1ccc(-n2cnn(-c3ccc(CCC(=O)O)cc3)c2=O)cc1 [1(146), 4-(4-amidino-phenyl)-2-[4-(2-carboxy-ethyl)-phenyl]-4H-1,2,4-triazol-3-one]	50	6.5
N=C(N)c1ccc(-n2ccn(-c3ccc(C=CC(=O)O)cc3)c2=O)cc1 [1(147), 1-(4-amidino-phenyl)-3-[4-(2-carboxy-ethenyl)-phenyl]-3H-imidazol-2-one]	160	27
N=C(N)c1ccc(-n2ccn(-c3ccc(CC(N)C(=O)O)cc3)c2=O)cc1 (centres unmarked) [1(148), 1-(4-amidino-phenyl)-3-[4-(2-amino-2-carboxy-ethyl)-phenyl]-3H-imidazol-2-one]	110	25
NCc1ccc(N2CCN(c3ccc(CC(N)C(=O)O)cc3)C2=O)cc1 (centres unmarked) [1(149), 1-[4-(2-amino-2-carboxy-ethyl)-phenyl]-3-(4-aminomethyl-phenyl)-imidazolidin-2-one]	1300	470
N=C(N)c1ccc(-n2ccn(-c3ccc(CC(C(=O)O)N(Cc4ccccc4)Cc4ccccc4)cc3)c2=O)cc1 (centres unmarked) [1(150), 1-(4-amidino-phenyl)-3-[4-(2-carboxy-2-dibenzylamino-ethyl)-phenyl]-3H-imidazol-2-one]	9900	370
CC(N)c1ccc(N2CCN(c3ccc(CCC(=O)O)cc3)C2=O)cc1 (centres unmarked) [1(153), 1-[4-(1-amino-ethyl)-phenyl]-3-[4-(2-carboxy-ethyl)-phenyl]-imidazolidin-2-one]	380	150
NC1CCc2cc(N3CCN(c4ccc(CCC(=O)O)cc4)C3=O)ccc21 (centres unmarked) [1(154), 1-(1-amino-5-indanyl)-3-[4-(2-carboxy-ethyl)-phenyl] -imidazolidin-2-one]	310	28
Cc1cc(CN)ccc1N1CCN(c2ccc(CCC(=O)O)cc2)C1=O [1(156), 1-(4-aminomethyl-2-methyl-phenyl)-3-[4-(2-carboxy-ethyl)-phenyl]-imidazolidin-2-one]	4100	3600
CCOC(=O)CCN1C(=O)CN(c2ccc(-c3ccc(C(=N)N)cc3)cc2)C1=O [2(2), 1-(4'-amidino-4-biphenylyl)-3-(2-ethoxycarbonyl-ethyl)-imidazolidin-2,4-dione hydrochloride]	630	25000
CCOC(=O)CCn1ccn(-c2ccc(-c3ccc(C(=N)N)cc3)cc2)c1=O [2(3), 1-(4'-amidino-4-biphenylyl)-3-(2-ethoxycarbonyl-ethyl)-3H-imidazol-2-one h ydrochloride]	3100	18000
CCOC(=O)CCN1CCCN(c2ccc(-c3ccc(C(=N)N)cc3)cc2)C1=O [2(4), 1-(4'-amidino-4-biphenylyl)-3-(2-ethoxycarbonyl-ethyl)-3,4,5,6-tetrahydro-1H-pyrimidin-2-one hydrochloride]	42000	15000
COC(=O)CN1CCCN(c2ccc(-c3ccc(C(=N)N)cc3)cc2)C1=O [2(5), 1-(4'-amidino-4-biphenylyl)-3-methoxycarbonylmethyl-3,4,5,6-tetrahydro-1H-pyrimidin-2-one hydrochloride]	25000	5600
COC(=O)CCc1ccc(N2CCN(c3ccc(C(=N)N)cc3)C2=O)cc1 [2(6), 1-(4-amidino-phenyl)-3-[4-(2-methoxycarbonyl-ethyl)-phenyl]-imidazolidin-2-one hydrochloride]	160	240
COC(=O)CCN1CCN(c2ccc(-c3ccc(C(=N)N)cc3)cc2)S1(=O)=O [2(20), 2-(4'-amidino-4-biphenylyl)-5-(2-methoxycarbonyl-ethyl)-3,4-dihydro-2H,5H-1,2,5-thiadiazole-1,1-dioxide hydrochloride]	690	5700
COC(=O)CCN1CCN(c2ccc(-c3ccc(C(=N)N)cc3)nn2)C1=O [2(27), 1-[6-(4-amidino-phenyl)-3-pyridazinyl]-3-(2-methoxycarbonyl-ethyl)-imidazolidin-2-one hydrochloride]	490	2500
COC(=O)CCc1ccc(N2CCN(c3ccc(C(=N)N)cc3C)C2=O)cc1 [2(34), 1-(4-amidino-2-methyl-phenyl)-3-[4-(2-methoxycarbonyl-ethyl)-phenyl]-imidazolidin-2-one hydrochloride]	350	7400
COC(=O)CCC1CCC(N2CCN(c3ccc(C(=N)N)cc3)C2=O)CC1 (centres unmarked) [2(43), 1-(4-amidino-phenyl)-3-[4-(2-methoxycarbonyl-ethyl)-cyclohexyl]-imidazolidin-2-one hydrochloride]	100	420
